In the NIST ThermoML archive (doi:10.1016/j.jct.2011.12.008):

Assay: xn = mol fraction of the nth substance listed
Details: 101 kPa, Liquid; for viscosity: Capillary tube (Ostwald / Ubbelohde) method; for mass density: Vibrating tube method

NCCCO [3-amino-1-propanol] + CCCCCCn1cc[n+](C)c1.F[B-](F)(F)F
Details | mass density [kg/m3] | viscosity [mPa·s]
293.15 K, x2 = 0 | 987.55 | 39.29
293.15 K, x2 = 0.0536 | 1010.87 | 39.35
293.15 K, x2 = 0.0969 | 1026.17 | 42.89
293.15 K, x2 = 0.202 | 1055.57 | 49.26
293.15 K, x2 = 0.3217 | 1080.32 | 56.99
293.15 K, x2 = 0.4942 | 1105.94 | 77.82
293.15 K, x2 = 0.6135 | 1118.92 | 97.27
293.15 K, x2 = 0.7276 | 1129.17 | 125.01
293.15 K, x2 = 0.8343 | 1137.49 | 163.87
293.15 K, x2 = 0.9204 | 1143.7 | 192.2
298.15 K, x2 = 0 | 983.55 | 30.43
298.15 K, x2 = 0.0536 | 1006.96 | 30.8
298.15 K, x2 = 0.0969 | 1022.3 | 33.2
298.15 K, x2 = 0.202 | 1051.74 | 37.85
298.15 K, x2 = 0.3217 | 1076.53 | 44.61
298.15 K, x2 = 0.4942 | 1102.24 | 59.65
298.15 K, x2 = 0.6135 | 1115.24 | 74.53
298.15 K, x2 = 0.7276 | 1125.66 | 95.2
298.15 K, x2 = 0.8343 | 1134.08 | 123.47
298.15 K, x2 = 0.9204 | 1140.23 | 148.27
303.15 K, x2 = 0 | 979.53 | 23.87
303.15 K, x2 = 0.0536 | 1003.04 | 24.16
303.15 K, x2 = 0.0969 | 1018.41 | 26.02
303.15 K, x2 = 0.202 | 1047.91 | 29.45
303.15 K, x2 = 0.3217 | 1072.75 | 34.55
303.15 K, x2 = 0.4942 | 1098.55 | 46.03
303.15 K, x2 = 0.6135 | 1111.63 | 57.96
303.15 K, x2 = 0.7276 | 1122.11 | 73.65
303.15 K, x2 = 0.8343 | 1130.63 | 95.84
303.15 K, x2 = 0.9204 | 1136.88 | 115.79
308.15 K, x2 = 0 | 975.51 | 19.07
308.15 K, x2 = 0.0536 | 999.11 | 19.14
308.15 K, x2 = 0.0969 | 1014.5 | 20.58
308.15 K, x2 = 0.202 | 1044.05 | 23.41
308.15 K, x2 = 0.3217 | 1068.95 | 27.53
308.15 K, x2 = 0.4942 | 1094.86 | 36.45
308.15 K, x2 = 0.6135 | 1108.04 | 45.81
308.15 K, x2 = 0.7276 | 1118.58 | 58.09
308.15 K, x2 = 0.8343 | 1127.18 | 75.38
308.15 K, x2 = 0.9204 | 1133.5 | 91.04
313.15 K, x2 = 0 | 971.47 | 15.27
313.15 K, x2 = 0.0536 | 995.18 | 15.64
313.15 K, x2 = 0.0969 | 1010.6 | 16.63
313.15 K, x2 = 0.202 | 1040.2 | 18.74
313.15 K, x2 = 0.3217 | 1065.16 | 22.05
313.15 K, x2 = 0.4942 | 1091.16 | 29.14
313.15 K, x2 = 0.6135 | 1104.43 | 36.47
313.15 K, x2 = 0.7276 | 1115.05 | 46.32
313.15 K, x2 = 0.8343 | 1123.73 | 59.62
313.15 K, x2 = 0.9204 | 1130.12 | 71.6
318.15 K, x2 = 0 | 967.43 | 12.35
318.15 K, x2 = 0.0536 | 991.28 | 12.68
318.15 K, x2 = 0.0969 | 1006.67 | 13.6
318.15 K, x2 = 0.202 | 1036.34 | 15.76
318.15 K, x2 = 0.3217 | 1061.36 | 18.42
318.15 K, x2 = 0.4942 | 1087.47 | 23.9
318.15 K, x2 = 0.6135 | 1100.82 | 28.64
318.15 K, x2 = 0.7276 | 1111.54 | 37.85
318.15 K, x2 = 0.8343 | 1120.28 | 48.22
318.15 K, x2 = 0.9204 | 1126.73 | 58.5
323.15 K, x2 = 0 | 963.37 | 10.22
323.15 K, x2 = 0.0536 | 987.32 | 10.61
323.15 K, x2 = 0.0969 | 1002.75 | 11.16
323.15 K, x2 = 0.202 | 1032.48 | 12.61
323.15 K, x2 = 0.3217 | 1057.55 | 15.89
323.15 K, x2 = 0.4942 | 1083.77 | 19.73
323.15 K, x2 = 0.6135 | 1097.21 | 24.2
323.15 K, x2 = 0.7276 | 1108.02 | 31.19
323.15 K, x2 = 0.8343 | 1116.83 | 39.61
323.15 K, x2 = 0.9204 | 1123.36 | 47.9
328.15 K, x2 = 0 | 959.3 | 8.535
328.15 K, x2 = 0.0536 | 983.35 | 8.7
328.15 K, x2 = 0.0969 | 998.8 | 9.325
328.15 K, x2 = 0.202 | 1028.62 | 10.96
328.15 K, x2 = 0.3217 | 1053.76 | 13.04
328.15 K, x2 = 0.4942 | 1080.08 | 16.58
328.15 K, x2 = 0.6135 | 1093.61 | 19.92
328.15 K, x2 = 0.7276 | 1104.51 | 26.05
328.15 K, x2 = 0.8343 | 1113.4 | 33.11
328.15 K, x2 = 0.9204 | 1119.94 | 41.26
333.15 K, x2 = 0 | 955.22 | 7.123
333.15 K, x2 = 0.0536 | 979.37 | 7.144
333.15 K, x2 = 0.0969 | 994.86 | 7.836
333.15 K, x2 = 0.202 | 1024.75 | 8.918
333.15 K, x2 = 0.3217 | 1049.98 | 10.47
333.15 K, x2 = 0.4942 | 1076.4 | 13.86
333.15 K, x2 = 0.6135 | 1090.05 | 17.14
333.15 K, x2 = 0.7276 | 1101.02 | 21.81
333.15 K, x2 = 0.8343 | 1109.97 | 27.5
333.15 K, x2 = 0.9204 | 1116.55 | 37.45
338.15 K, x2 = 0 | 951.14 | 6.045
338.15 K, x2 = 0.0536 | 975.37 | 6.221
338.15 K, x2 = 0.0969 | 990.91 | 6.676
338.15 K, x2 = 0.202 | 1020.88 | 7.634
338.15 K, x2 = 0.3217 | 1046.21 | 9.153
338.15 K, x2 = 0.4942 | 1072.72 | 11.94
338.15 K, x2 = 0.6135 | 1086.5 | 14.71
338.15 K, x2 = 0.7276 | 1097.55 | 18.64
338.15 K, x2 = 0.8343 | 1106.57 | 23.24
338.15 K, x2 = 0.9204 | 1113.17 | 32.09
